According to US11401256B2, “Dihydroquinolinones for medical treatment” (C4 Therapeutics, Inc., priority 2017, dated 2022):

Biological target: h-Cereblon_DDB1 (hCereblon(M1-L442)_hDDB1(M1-H1140)) (Homo sapiens (Human), UniProt Q96SW2)
Test: Fluorescence direct binding (tryptophan fluorescence titration)
Conditions: 20° C., excitation 280 nm, emission 340 nm, 1:1 protein-ligand complex; read-out: Fluorescence h-Cereblon_DDB1 Mean Kd_EQ
Description: Determination of the affinities of compounds to protein containing one or more tryptophan is measurable by monitoring the fluorescence emission in direct mode. The measurements depending on the protein available amounts are performed either manually in a cuvette on ISS-PC1 photon counting spectrofluorometer or automatically in well plates on a fluorescence plate reader device. Fluorescence titrations are performed at 20° C. in the chosen binding assay buffer by using a defined constant protein concentration against ligand concentration variations. Small aliquots of known ligand concentration solubilized in DMSO were added and the fluorescence, excited at 280 nm, was recorded at 340 nm. The fluorescence intensity was corrected for protein dilution and for the filter effect (Birdsall et al.^37). The corrected fluorescence intensity was plotted against the ligand concentration and fitted using a four-parameter sigmoidal function, from which the equilibrium dissociation constant Kd was computed using the law of mass action assuming a 1:1 protein-ligand complex (Eftink, 1997^38).
Process • 1) Optimization of measurement parameters to minimize protein consumption and to minimize the dilution effect and the DMSO content • 2) Titration measurements of the protein against ligand by at least 12 titration steps to obtain a good s-curve fit • 3) Repeat the same titration measurements with the ligand alone to enable correction • 4) Check the stability of the protein once by titration against DMSO alone • 5) Determination of the molar extinction coefficients of the ligand at 280 and 340 nm with help of a UV-spectrophotometer • 6) Use Excel template for the correction of the measured raw data • 7) Use GraphPad Prism software for the quadratic binding fit and the Kd evaluation.

Chain of h-Cereblon_DDB1 (hCereblon(M1-L442)_hDDB1(M1-H1140)) (Q96SW2 whole entry): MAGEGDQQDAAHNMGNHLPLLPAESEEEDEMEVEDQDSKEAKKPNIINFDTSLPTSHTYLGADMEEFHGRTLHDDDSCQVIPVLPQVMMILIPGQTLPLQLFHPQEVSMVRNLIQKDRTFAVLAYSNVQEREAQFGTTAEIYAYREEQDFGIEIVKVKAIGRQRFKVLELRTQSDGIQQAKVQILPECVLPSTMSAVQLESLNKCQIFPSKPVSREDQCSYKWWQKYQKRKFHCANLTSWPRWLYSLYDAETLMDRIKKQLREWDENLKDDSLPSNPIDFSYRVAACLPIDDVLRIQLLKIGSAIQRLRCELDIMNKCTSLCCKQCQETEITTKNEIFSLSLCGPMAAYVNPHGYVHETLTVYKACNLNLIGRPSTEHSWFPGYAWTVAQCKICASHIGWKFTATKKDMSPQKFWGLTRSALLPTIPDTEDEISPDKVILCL
Chain of h-Cereblon_DDB1 (hCereblon(M1-L442)_hDDB1(M1-H1140)) (Q16531 whole entry partner): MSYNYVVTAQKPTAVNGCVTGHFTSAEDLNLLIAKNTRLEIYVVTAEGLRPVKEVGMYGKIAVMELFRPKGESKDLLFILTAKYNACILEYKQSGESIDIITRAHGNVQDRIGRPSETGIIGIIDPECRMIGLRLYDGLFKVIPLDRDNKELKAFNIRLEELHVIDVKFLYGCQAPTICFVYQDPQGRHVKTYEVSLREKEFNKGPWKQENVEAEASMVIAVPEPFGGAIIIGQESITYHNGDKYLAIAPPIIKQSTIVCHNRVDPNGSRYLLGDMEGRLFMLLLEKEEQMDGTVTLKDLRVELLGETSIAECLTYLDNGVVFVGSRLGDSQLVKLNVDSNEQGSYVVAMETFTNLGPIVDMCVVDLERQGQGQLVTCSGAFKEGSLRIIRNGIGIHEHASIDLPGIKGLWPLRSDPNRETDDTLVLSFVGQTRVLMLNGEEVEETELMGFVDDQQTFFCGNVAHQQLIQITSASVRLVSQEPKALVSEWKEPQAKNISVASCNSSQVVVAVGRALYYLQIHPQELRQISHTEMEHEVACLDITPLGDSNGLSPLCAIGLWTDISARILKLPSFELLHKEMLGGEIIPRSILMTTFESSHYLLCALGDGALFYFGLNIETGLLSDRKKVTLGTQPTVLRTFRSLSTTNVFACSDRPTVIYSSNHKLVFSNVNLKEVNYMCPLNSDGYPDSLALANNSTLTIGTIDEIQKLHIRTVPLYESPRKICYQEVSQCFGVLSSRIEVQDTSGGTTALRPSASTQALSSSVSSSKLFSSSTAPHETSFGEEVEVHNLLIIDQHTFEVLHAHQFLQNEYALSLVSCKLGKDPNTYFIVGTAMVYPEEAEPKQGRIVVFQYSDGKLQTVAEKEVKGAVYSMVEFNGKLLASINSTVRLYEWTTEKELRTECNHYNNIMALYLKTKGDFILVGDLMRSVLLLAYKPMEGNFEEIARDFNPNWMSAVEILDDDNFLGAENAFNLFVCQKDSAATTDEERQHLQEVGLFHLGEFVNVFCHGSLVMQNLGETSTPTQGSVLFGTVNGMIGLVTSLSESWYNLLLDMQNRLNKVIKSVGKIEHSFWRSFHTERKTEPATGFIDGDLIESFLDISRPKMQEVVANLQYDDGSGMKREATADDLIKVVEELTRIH

| SMILES | Kd |
| --- | --- |
| CNC(=O)c1ccc2c(c1)nc(-c1ccnc(OC)c1)n2-c1cnc2c(c1)CCC(=O)N2 [Example 29, 2-(2-Methoxy-4-pyridyl)-N-methyl-1-(7-oxo-6,8-dihydro-5H-1,8-naphthyridin-3-yl)benzimidazole-5-carboxamide] | 35 nM |
| CNC(=O)c1ccc2c(c1)nc(C(C)C)n2-c1ccc2c(c1)CNC(=O)N2 [Example 62, 2-Isopropyl-N-methyl-1-(2-oxo-1,2,3,4-tetrahydroquinazolin-6-yl)-1H-benzo[d]imidazole-5-carboxamide] | 120 nM |
| O=C1CCc2cc(C(=O)N3CCc4cccnc43)ccc2N1 [Example 55, 6-(2,3-Dihydropyrrolo[2,3-b]pyridine-1-carbonyl)-3,4-dihydro-1H-quinolin-2-one] | 23 nM |
| Cc1sc2c(c1C)C(c1ccc(Cl)cc1)=N[C@@H](CC(=O)NCCCCCCCCCCNC(=O)c1ccc3c(c1)nc(-c1cc(-c4cncn4C)nc4ccccc14)n3-c1ccc3c(c1)CCC(=O)N3)c1nnc(C)n1-2 [Example A, N-(10-(2-((6S)-4-(4-Chlorophenyl)-2,3,9-trimethyl-6H-thieno[3,2-f][1,2,4]triazolo[4,3-a][1,4]diazepin-6-yl)acetamido)decyl)-2-(2-(1-methyl-1H-imidazol-5-yl)quinolin-4-yl)-1-(2-oxo-1,2,3,4-tetrahydroquinolin-6-yl)-1H-benzo[d]imidazole-5-carboxamide] | 338 nM |
| Cc1sc2c(c1C)C(c1ccc(Cl)cc1)=N[C@@H](CC(=O)NCCCCCNC(=O)c1ccc3c(c1)nc(-c1cc(-c4cncn4C)nc4ccccc14)n3-c1ccc3c(c1)CCC(=O)N3)c1nnc(C)n1-2 [Example B, N-(5-(2-((6S)-4-(4-Chlorophenyl)-2,3,9-trimethyl-6H-thieno[3,2-f][1,2,4]triazolo[4,3-a][1,4]diazepin-6-yl)acetamido)pentyl)-2-(2-(1-methyl-1H-imidazol-5-yl)quinolin-4-yl)-1-(2-oxo-1,2,3,4-tetrahydroquinolin-6-yl)-1H-benzo[d]imidazole-5-carboxamide] | 258 nM |
| CNC(=O)c1ccc2c(c1)nc(-c1cc(OC)ccc1C)n2-c1ccc2c(c1)CCC(=O)N2 [Example 33, 2-(5-Methoxy-2-methyl-phenyl)-N-methyl-1-(2-oxo-3,4-dihydro-1H-quinolin-6-yl)benzimidazole-5-carboxamide] | 45 nM |
| COC(=O)c1ccc(Nc2ccc3c(c2)CCC(=O)N3)cc1 [Example 19, Methyl 4-((2-oxo-1,2,3,4-tetrahydroquinolin-6-yl)amino)benzoate] | 30 nM |
| CC(=O)N1CCC(NC(=O)c2ccc3c(c2)CCC(=O)N3)CC1 [Example 57, N-(1-Acetyl-4-piperidyl)-2-oxo-3,4-dihydro-1H-quinoline-6-carboxamide] | 41 nM |
| CNC(=O)c1ccc2c(c1)nc(-c1cc(-c3cncn3C)nc3ccccc13)n2-c1ccc2c(c1)CCC(=O)N2 [Example 2, N-Methyl-2-[2-(3-methylimidazol-4-yl)-4-quinolyl]-1-(2-oxo-3,4-dihydro-1H-quinolin-6-yl)benzimidazole-5-carboxamide] | 40 nM |
| CC(C)c1nc2ccccc2n1-c1ccc2c(c1)CNC(=O)N2 [Example 61, 6-(2-Isopropyl-1H-benzo[d]imidazol-1-yl)-3,4-dihydroquinazolin-2(1H)-one] | 171 nM |
| Cc1sc2c(c1C)C(c1ccc(Cl)cc1)=N[C@@H](CC(=O)NCCOCCOCCNC(=O)c1ccc3c(c1)nc(-c1cc(-c4cncn4C)nc4ccccc14)n3-c1ccc3c(c1)CCC(=O)N3)c1nnc(C)n1-2 [Example C, N-(2-(2-(2-(2-((6S)-4-(4-Chlorophenyl)-2,3,9-trimethyl-6H-thieno[3,2-f][1,2,4]triazolo[4,3-a][1,4]diazepin-6-yl)acetamido)ethoxy)ethoxy)ethyl)-2-(2-(1-methyl-1H-imidazol-5-yl)quinolin-4-yl)-1-(2-oxo-1,2,3,4-tetrahydroquinolin-6-yl)-1H-benzo[d]imidazole-5-carboxamide] | 524 nM |
| O=C1CCc2cc(C(=O)N3CCc4ccccc43)cnc2N1 [Example 58, 6-(Indoline-1-carbonyl)-3,4-dihydro-1H-1,8-naphthyridin-2-one] | 62 nM |
| Cn1cncc1-c1cc(C(=O)Nc2ccc3c(c2)CCC(=O)N3)c2ccccc2n1 [Example 5] | 677 nM |

The next compounds have a lower Kd than those just listed; values first:

| Kd | SMILES |
| --- | --- |
| 17 nM | CNC(=O)c1ccc2c(c1)nc(Cc1ccc(C(F)(F)F)cc1OC)n2-c1ccc2c(c1)CCC(=O)N2 [Example 47, 2-[[2-Methoxy-4-(trifluoromethyl)phenyl]methyl]-N-methyl-1-(2-oxo-3,4-dihydro-1H-quinolin-6-yl)benzimidazole-5-carboxamide] |
| 16 nM | O=C1CCc2ccc(-n3ccnc3)cc2N1 [Example 53, 7-(1H-Imidazol-1-yl)-3,4-dihydroquinolin-2(1H)-one] |
| 16 nM | O=C1CCc2cc(-n3ccnc3)cnc2N1 [Example 9, 6-(1H-Imidazol-1-yl)-3,4-dihydro-1,8-naphthyridin-2(1H)-one] |
| 15 nM | CNC(=O)c1ccc2c(c1)nc(-c1cccc(OC)n1)n2-c1ccc2c(c1)CCC(=O)N2 [Example 23, 2-(6-Methoxypyridin-2-yl)-N-methyl-1-(2-oxo-1,2,3,4-tetrahydroquinolin-6-yl)-1H-benzo[d]imidazole-5-carboxamide] |
| 14 nM | CNC(=O)c1ccc2c(c1)nc(-c1cc(OC)ccc1F)n2-c1ccc2c(c1)CCC(=O)N2 [Example 35, 2-(2-Fluoro-5-methoxy-phenyl)-N-methyl-1-(2-oxo-3,4-dihydro-1H-quinolin-6-yl)benzimidazole-5-carboxamide] |
| 12 nM | CNC(=O)c1ccc2c(c1)nc(-c1ccc(OC)nc1)n2-c1ccc2c(c1)CCC(=O)N2 [Example 24, 2-(6-Methoxypyridin-3-yl)-N-methyl-1-(2-oxo-1,2,3,4-tetrahydroquinolin-6-yl)-1H-benzo[d]imidazole-5-carboxamide] |
| 11 nM | CNC(=O)c1ccc2c(c1)nc(CO)n2-c1ccc2c(c1)CCC(=O)N2 [Example 15, 2-(Hydroxymethyl)-N-methyl-1-(2-oxo-1,2,3,4-tetrahydroquinolin-6-yl)-1H-benzo[d]imidazole-5-carboxamide] |
| 10 nM | CNC(=O)c1ccc2c(c1)nc(-c1cc(OC)ncc1F)n2-c1ccc2c(c1)CCC(=O)N2 [Example 44, 2-(5-Fluoro-2-methoxy-4-pyridyl)-N-methyl-1-(2-oxo-3,4-dihydro-1H-quinolin-6-yl)benzimidazole-5-carboxamide] |
| 4 nM | COC(=O)c1ccc2c(c1)nc(-c1ccnc(OC)c1)n2-c1ccc2c(c1)CCC(=O)N2 [Example 22, Methyl 2-(2-methoxypyridin-4-yl)-1-(2-oxo-1,2,3,4-tetrahydroquinolin-6-yl)-1H-benzo[d]imidazole-5-carboxylate] |
| 4 nM | O=C1CCc2cc(NC(=O)C3CCCc4ccccc43)cnc2N1 (racemic) [Example 21, (RS)—N-(7-Oxo-5,6,7,8-tetrahydro-1,8-naphthyridin-3-yl)-1,2,3,4-tetrahydronaphthalene-1-carboxamide] |
| 3 nM | O=C1CCc2cc(C(=O)N3CCc4cccnc43)cnc2N1 [Example 59, 6-(2,3-Dihydropyrrolo[2,3-b]pyridine-1-carbonyl)-3,4-dihydro-1H-1,8-naphthyridin-2-one] |
| 1 nM | O=C1CCc2cc(C(=O)N3CCCc4ccccc43)cnc2N1 [Example 60, 6-(3,4-Dihydro-2H-quinoline-1-carbonyl)-3,4-dihydro-1H-1,8-naphthyridin-2-one] |
